One may read the GI50 as the concentration at which growth is held to half of that of the control. The low end stands for greater sensitivity of the cells, the high end for lower sensitivity of the cells.

Each structure is given as a SMILES string.

Drawing on US20250388605A1, “HETEROBIFUNCTIONAL COMPOUNDS AND METHODS OF TREATING DISEASE” (Halda Therapeutics OpCo, Inc., priority 2022, published 2025), this text covers GI50 for nine compounds.

Experiment [1] concerns T-Rex 293 cell line SC3 cells having increased expression of androgen receptor protein due to exposure to doxycycline. The experiment is described as follows: Cellular growth inhibition, T-Rex 293 SC3 cells with doxycycline (increased androgen receptor expression), CellTiter-Glo. Type of experiment: cell-based. The conditions noted are these: T-Rex 293 SC3 cells with 10 ng/mL doxycycline (increased androgen receptor expression), 72 hours, CellTiter-Glo 2.0. The gist of the method:
(§1)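 Growth inhibition is measured in an inducible AR-expressing T-Rex 293 clone, SC3, cultured with or without 10 ng/mL doxycycline in hormone-depleted medium. Test compounds are applied for 72 hours. GI50 values derive from CellTiter-Glo 2.0 signal fitted by four-parameter regression.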
Background: Cellular ATP, detected with luciferase, serves as a proxy for viable cell number.

The test system of experiment [2] is T-Rex 293 cell line SC cells lacking increased expression of progesterone receptor isoform B protein. The experiment is described as follows: Cellular growth inhibition assay, T-Rex 293 SC cells not exposed to doxycycline (no increased progesterone receptor isoform B expression), CellTiter-Glo. Type of experiment: cell-based. Conditions: T-Rex 293 SC cells without doxycycline (no increased PR isoform B), 72 hours. As for the experimental part: (§2) The SC cells were seeded on poly-D-lysine coated, black clear-bottom 384-well plates at 2500/well, in 25 μL Phenol Red Free Dulbecco's Modified Eagle Medium (DMEM) supplemented with 10% w/w charcoal-dextran treated fetal bovine serum (FBS) and 1% w/w pen-strep, with or without 10 ng/mL doxycycline. Pen-Strep is a commercially available mixture of penicillin G and streptomycin, which is used in mammalian cell culture media to prevent bacterial contamination. Phenol Red Free Dulbecco's Modified Eagle Medium (DMEM) supplemented with 10% w/w charcoal-dextran treated fetal bovine serum (FBS) and 1% w/w pen-strep, with or without 10 ng/mL doxycycline is herein referred to as Treatment Medium. Following seeding of cells in the plates, the plates were spun at 300×g for 30 seconds, then equilibrated to room temperature for 30 minutes, and then deposited in a humidified tissue culture incubator maintained at 37° C. with 5% CO2.
(§3) At 24 hours after seeding of the cells, dilutions of test compound were prepared in DMSO and dissolved in Treatment Medium, to achieve a final DMSO concentration of 0.5% w/w, thereby providing the Test Compound Solution. A 25 μL aliquot of the Test Compound Solution was added to cells in the well plates. An equal volume of a solution containing DMSO and Treatment Medium was used as a negative control. Following treatment of cells with Test Compound Solution or said equal volume of a solution containing DMSO and Treatment Medium, the plates were spun at 300×g for 30 seconds, and then left in an incubator for 72 hours.
(§4) At the end of the treatment duration, cell viability was quantified with CellTiter-Glo 2.0 reagent (Promega Cat #G9243). For this purpose, plates were equilibrated to room temperature for 30 minutes, and then 25 μL of CellTiter-Glo 2.0 reagent was added to cells in the plate wells. Plates were then agitated on a shaker for two minutes at 500 rpm and subsequently incubated at room temperature for 10 minutes. Following incubation, the plates were spun at 3000×g for 30 seconds, then sealed with an optical adhesive cover, and luminescence readings were measured with an EnVision Plate Reader (Perkin Elmer).
(§5) Data was normalized using zero luminescence for baseline. A four-parameter non-linear regression curve fit was applied to dose-response data in GraphPad Prism data analysis software to determine the half-maximal growth inhibitory concentration (GI50) for each test compound.

The subject of experiment [3] is T-Rex 293 cell line SC3 cells lacking increased expression of androgen receptor protein. The experiment is described as follows: Cellular growth inhibition, T-Rex 293 SC3 cells without doxycycline (no increased androgen receptor expression), CellTiter-Glo. The format is cell-based. The conditions noted are these: T-Rex 293 SC3 cells not exposed to doxycycline (no increased androgen receptor expression), 72 hours. The gist of the method:
as §1

Another experiment has as its system VCaP cells. The experiment is described as follows: Cellular growth inhibition assay for VCaP cells, CellTiter-Glo. The format is cell-based, human. Conditions: 72 hours. The gist of the method:
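GI50 values come from four-parameter curve fits of luminescence data normalized to a zero baseline. Compound, in medium with 0.5% DMSO, was added one day after plating and left for 72 h before CellTiter-Glo 2.0 addition.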

For experiment [4], the system named is T-Rex 293 cell line SC cells having increased expression of progesterone receptor isoform B protein. The experiment is described as follows: Cellular growth inhibition assay, T-Rex 293 SC cells exposed to doxycycline (increased progesterone receptor isoform B expression), CellTiter-Glo. The format is cell-based. Conditions: T-Rex 293 SC cells with 10 ng/mL doxycycline (increased PR isoform B), 72 hours. The protocol:
as §2, §3, §4, §5

For another experiment, the system named is T47D cells. The experiment is described as follows: Cellular Growth Inhibition Assay for T47D Cells (CellTiter-Glo). Type of experiment: cell-based, human. The conditions noted are these: 72 hours. The gist of the method: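 GI50 values derive from four-parameter regression of CellTiter-Glo 2.0 luminescence, using zero luminescence as baseline. Human breast cancer T47D cells (3000/well; DMEM, 10% FBS, 0.2 units/mL insulin) were exposed for 72 h to compound dilutions at 0.5% DMSO, with dosing starting 24 h after seeding.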

With `CCS(=O)(=O)c1ccc(Oc2cccc(OCCN3CCN(c4ncc(C(=O)N[C@H]5C(C)(C)[C@H](Oc6ccc(C#N)c(Cl)c6)C5(C)C)cn4)CC3)c2F)c(-c2cn(C)c(=O)c3[nH]ccc23)c1` [Compound I-207], the GI50 (in experiment [1]; in experiment [2]; in experiment [3]; with VCaP cells; in experiment [4]) was less than 500 nM throughout.

Regarding `CCS(=O)(=O)Nc1ccc(Oc2cccc(OC3CC4(CCN(c5ncc(C(=O)N[C@H]6C(C)(C)[C@H](Oc7ccc(C#N)c(Cl)c7)C6(C)C)cn5)CC4)C3)c2)c(-c2cn(C)c(=O)c3[nH]ccc23)c1` [Compound I-44], the GI50 in experiment [1] was less than 500 nM; in the experiment on T47D cells (Homo sapiens) it was less than 500 nM; in experiment [2], greater than 3000 nM; in experiment [3], greater than 3000 nM; in the experiment on VCaP cells (Homo sapiens), less than 500 nM; in experiment [4], less than 500 nM.

As for `CN(CCOc1ccc(Oc2ccc(C(C)(C)O)cc2-c2cn(C)c(=O)c3[nH]ccc23)cc1)c1ncc(C(=O)N[C@H]2C(C)(C)[C@H](Oc3ccc(C#N)c(Cl)c3)C2(C)C)cn1` [Compound I-199], the GI50 (in experiment [1]; in the experiment on T47D cells (Homo sapiens); in experiment [2]; in experiment [3]; with VCaP cells (Homo sapiens); in experiment [4]) was less than 500 nM each time.

`Cn1cc(-c2cc(C(C)(C)O)ccc2Oc2ccc(C3CN(C4CCN(c5ncc(C(=O)N[C@H]6C(C)(C)[C@H](Oc7ccc(C#N)c(Cl)c7)C6(C)C)cn5)CC4)C3)cc2)c2cc[nH]c2c1=O` [Compound I-304]: the GI50 was less than 500 nM in experiment [1]; less than 500 nM with T47D cells; 500 to 1500 nM in experiment [2]; less than 500 nM in experiment [3]; less than 500 nM with VCaP cells; less than 500 nM in experiment [4].

`Cn1cc(-c2cc(C(C)(C)O)ccc2Oc2ccc(N3CC(C4CCN(c5ncc(C(=O)N[C@H]6C(C)(C)[C@H](Oc7ccc(C#N)c(Cl)c7)C6(C)C)cn5)CC4)C3)cc2)c2cc[nH]c2c1=O` [Compound I-299]: the GI50 was less than 500 nM in experiment [1]; less than 500 nM with T47D cells; 500 to 1500 nM in experiment [2]; greater than 3000 nM in experiment [3]; less than 500 nM in the experiment on VCaP cells; less than 500 nM in experiment [4].

Turning to `CCS(=O)(=O)c1ccc(Oc2ccc(OCC3CCN(c4ncc(C(=O)N[C@H]5C(C)(C)[C@H](Oc6ccc(C#N)c(Cl)c6)C5(C)C)cn4)CC3)cc2)c(-c2cn(C)c(=O)c3[nH]ccc23)c1` [Compound I-213], the GI50 (in experiment [1]; with T47D cells; in experiment [2]; in experiment [3]; with VCaP cells; in experiment [4]) was less than 500 nM each time.

As for `CCS(=O)(=O)Nc1ccc(Oc2cccc(N3CC(OC4CCN(c5ncc(C(=O)N[C@H]6C(C)(C)[C@H](Oc7ccc(C#N)c(Cl)c7)C6(C)C)cn5)CC4)C3)c2F)c(-c2cn(C)c(=O)c3[nH]ccc23)c1` [Compound I-175], the GI50 is less than 500 nM in experiment [1]; less than 500 nM with T47D cells; greater than 3000 nM in experiment [2]; less than 500 nM in experiment [3]; less than 500 nM in the experiment with VCaP cells; less than 500 nM in experiment [4].

For `CCS(=O)(=O)Nc1ccc(Oc2cccc(N3CCC(CC4CCN(c5ncc(C(=O)N[C@H]6C(C)(C)[C@H](Oc7ccc(C#N)c(Cl)c7)C6(C)C)cn5)CC4)CC3)c2)c(-c2cn(C)c(=O)c3[nH]ccc23)c1` [Compound I-36], the 50% growth inhibitory concentration (GI50) in experiment [1] was less than 500 nM; in the experiment on T47D cells (Homo sapiens), less than 500 nM; in experiment [2], greater than 3000 nM; in experiment [3], greater than 3000 nM; in the experiment on VCaP cells (Homo sapiens) it was less than 500 nM; in experiment [4] it was less than 500 nM.

As to `Cn1cc(-c2cc(C(C)(C)O)ccc2Oc2ccc(CC3CC4(CCN(c5ncc(C(=O)N[C@H]6C(C)(C)[C@H](Oc7ccc(C#N)c(Cl)c7)C6(C)C)cn5)CC4)C3)cc2)c2cc[nH]c2c1=O` [Compound I-279], the GI50 in experiment [1] is less than 500 nM; in experiment [2] it was greater than 3000 nM; in experiment [3], greater than 3000 nM; with VCaP cells (Homo sapiens), less than 500 nM; in experiment [4], less than 500 nM.
